The values below come from ChEMBL document CHEMBL1201862, “PubChem BioAssay data set” (2004).

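Results reflect a 48-hour exposure of cells in 96-well plates to compound at five concentrations. At the GI50, growth is halved.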 Activity calls are given as the source filed them. Cut-off read from the data, not from the text of the source: active = GI50 up to about 1.1 µM and inactive = higher.

Test systems include KM12; SF-268; SR; RXF 393; HCT-15; HCT-116; RPMI-8226; OVCAR-5; UO-31; UACC-257; MDA-MB-231; U-251; CAKI-1; Hs-578T; CCRF-CEM; TK-10; DU-145; BT-549; SK-OV-3; T47D.
Assay in all cases: NCI anticancer screen, dose series, 48 h

On to `COC(=O)CNC(=O)CNC(=O)CSc1nnc(COc2ccc(Cl)cc2)n1-c1ccccc1`, for which the GI50 in the experiment with KM12 is 21.3 µM (inactive); in the experiment with SF-268, 20.8 µM (inactive); in the experiment on SR it was 29 µM (inactive); in the experiment with RXF 393, 15.4 µM (inactive); with HCT-15, > 100 µM; with HCT-116, 38.7 µM (inactive). For the same compound, the GI50 was 29.4 µM (inactive) in the experiment on RPMI-8226; > 100 µM (inactive) with OVCAR-5; 21.4 µM (inactive) in the experiment on UO-31; 19.1 µM (inactive) in the experiment on UACC-257; 19.1 µM (inactive) with MDA-MB-231; 49.9 µM (inactive) in the experiment on U-251. Moreover, the GI50 with CAKI-1 was 17.6 µM (inactive); with Hs-578T, 23.2 µM (inactive); in the experiment on CCRF-CEM, 25.3 µM (inactive); with TK-10, 44.5 µM (inactive); in the experiment with DU-145 it was > 100 µM (inactive); in the experiment with BT-549, 24.4 µM (inactive).
`CN(N=O)C(=N)NC(=O)c1ccccc1`: the GI50 with KM12 is > 100 µM (inactive); in the experiment on SF-268, > 100 µM (inactive); in the experiment on SR, 4.33 µM (inactive); in the experiment on RXF 393, > 100 µM (inactive); with HCT-15, > 100 µM; in the experiment on HCT-116 it was 67.6 µM (inactive). For the same compound, the GI50 in the experiment on RPMI-8226, in the experiment with OVCAR-5, in the experiment on UO-31, in the experiment with UACC-257, with MDA-MB-231 and in the experiment on U-251 was > 100 µM (inactive) in each case. Moreover, the GI50 with CAKI-1, with Hs-578T, in the experiment with CCRF-CEM, in the experiment with SK-OV-3, in the experiment with TK-10 and with T47D was > 100 µM (inactive) in each case. Moreover, the GI50 in the experiment with BT-549 was > 100 µM (inactive).
With `COc1c(CC=C(C)C)c(O)c(C(CC(C)C)c2c(O)c3c(c(C(C)=O)c2O)OC(C(C)(C)O)C3)c(O)c1C(C)=O` (stereo not drawn), the GI50 with KM12 was 3.7 µM (inactive); in the experiment on SF-268, 4.53 µM (inactive); in the experiment on SR, 2.17 µM (inactive); in the experiment with RXF 393 it was 3.67 µM (inactive); with HCT-15, 3.64 µM; in the experiment with HCT-116 it was 3.64 µM (inactive). Also, the GI50 in the experiment with RPMI-8226 was 0.968 µM (active); in the experiment with OVCAR-5, 6.93 µM (inactive); in the experiment with UO-31 it was 4.32 µM (inactive); in the experiment on UACC-257, 4.18 µM (inactive); in the experiment on CAKI-1 it was 3.93 µM (inactive); in the experiment with Hs-578T, 3.94 µM (inactive). Moreover, the GI50 is 2.58 µM (inactive) in the experiment on CCRF-CEM; 5.46 µM (inactive) in the experiment on SK-OV-3; 4.54 µM (inactive) in the experiment on DU-145; 3.46 µM (inactive) with T47D; 3 µM (inactive) in the experiment with BT-549.
As for `CN1CN(c2ccccc2)C2(CCN(Cc3csc4ccccc34)CC2)C1=O`, the GI50 is 11.5 µM (inactive) in the experiment with KM12; 22.3 µM (inactive) in the experiment with SF-268; 4.45 µM (inactive) with SR; 16.6 µM (inactive) in the experiment with RXF 393; 14.5 µM in the experiment with HCT-15; 5.35 µM (inactive) with HCT-116. Moreover, the GI50 in the experiment with RPMI-8226 is 2.16 µM (inactive); in the experiment on OVCAR-5, 1.63 µM (inactive); in the experiment on UO-31, 3.71 µM (inactive); with UACC-257, 13.2 µM (inactive); with MDA-MB-231 it was > 10 µM (inactive); with U-251, 8.55 µM (inactive). For the same compound, the GI50 with CAKI-1 is 7.45 µM (inactive); in the experiment with CCRF-CEM it was 17.5 µM (inactive); in the experiment with SK-OV-3, 38.2 µM (inactive); in the experiment with TK-10, 12.9 µM (inactive); in the experiment with DU-145, 49.2 µM (inactive); in the experiment on T47D, 5.11 µM (inactive). The GI50 in the experiment with BT-549 was 7.35 µM (inactive).
With `CC(=O)O[C@H]1CC[C@H]2[C@@H]3CCC4=CC(=O)C=C[C@]4(O)[C@H]3CC[C@]12C`, the GI50 is 14.9 µM (inactive) in the experiment with KM12; 0.738 µM (active) with SR; 20.6 µM (inactive) with RXF 393; 29.6 µM in the experiment with HCT-15; 21.9 µM (inactive) in the experiment on HCT-116; 3.47 µM (inactive) in the experiment on RPMI-8226. In addition, the GI50 in the experiment on OVCAR-5 was > 100 µM (inactive); in the experiment on UO-31, 55.5 µM (inactive); in the experiment with UACC-257, 18.4 µM (inactive); in the experiment with MDA-MB-231, > 82.8 µM (inactive); in the experiment on U-251, 46 µM (inactive); in the experiment with CAKI-1 it was > 55.1 µM (inactive). Moreover, the GI50 was 13.5 µM (inactive) with CCRF-CEM; > 100 µM (inactive) in the experiment with TK-10; > 50.4 µM (inactive) in the experiment on DU-145; 13.3 µM (inactive) with T47D; 43 µM (inactive) with BT-549.
As for `O=C(O)c1cccc(F)c1C(=O)c1ccc2ccccc2c1`, the GI50 was > 100 µM (inactive) in the experiment on KM12; > 100 µM (inactive) with SF-268; > 100 µM (inactive) in the experiment on RXF 393; > 100 µM with HCT-15; > 100 µM (inactive) with HCT-116; > 100 µM (inactive) in the experiment on RPMI-8226. Further, the GI50 with OVCAR-5, in the experiment with UO-31, in the experiment on UACC-257, in the experiment with MDA-MB-231, with U-251 and with CAKI-1 was > 100 µM (inactive) throughout. Also, the GI50 in the experiment on Hs-578T is > 100 µM (inactive); with CCRF-CEM, > 100 µM (inactive); with SK-OV-3, > 100 µM (inactive); in the experiment with TK-10, > 100 µM (inactive); with T47D, 3.94 µM (inactive); with BT-549, > 100 µM (inactive).
As to `Cc1ccc2c(O)cc(-c3cccc(Cl)c3)nc2n1`, the GI50 with KM12 was < 0.0196 µM (active); with SF-268 it was 0.59 µM (active); with SR, 0.0266 µM (active); in the experiment with HCT-15, < 0.0192 µM; in the experiment on HCT-116, < 0.016 µM (active); in the experiment with RPMI-8226 it was < 0.0212 µM (active). Also, the GI50 is 0.902 µM (active) in the experiment on UO-31; 0.0393 µM (active) with UACC-257; 0.0537 µM (active) with MDA-MB-231; 0.0308 µM (active) with U-251; 0.0415 µM (active) with CAKI-1; 0.028 µM (active) in the experiment with Hs-578T. The GI50 is < 0.0238 µM (active) in the experiment on CCRF-CEM; 0.0411 µM (active) in the experiment on SK-OV-3; > 59.8 µM (inactive) with TK-10; 0.194 µM (active) in the experiment with DU-145; 0.278 µM (active) in the experiment with BT-549.
Regarding `Cc1cc(C)c2c(c1)CC1(Cc3c(C)cc(C)cc3C1=O)C2=O` (stereo not drawn), the GI50 in the experiment on KM12 is > 100 µM (inactive); in the experiment on SF-268, > 100 µM (inactive); in the experiment on SR, > 100 µM (inactive); in the experiment with RXF 393, > 100 µM (inactive); in the experiment on HCT-15 it was > 100 µM; in the experiment with RPMI-8226, > 100 µM (inactive). In addition, the GI50 in the experiment on OVCAR-5, in the experiment on UO-31, in the experiment with UACC-257, in the experiment on MDA-MB-231, in the experiment with U-251 and in the experiment on CAKI-1 was > 100 µM (inactive) throughout. Besides, the GI50 in the experiment with Hs-578T, in the experiment on CCRF-CEM, in the experiment on TK-10, with DU-145 and with BT-549 was > 100 µM (inactive) in each case.
For the compound `CN(C)CCNC(=O)c1cc(NC(=O)c2cc(NC(=O)CC/C=C3/[C@@H]4CC[C@H]3N=N4)cn2C)cn1C`, the GI50 in the experiment with KM12 was > 100 µM (inactive); in the experiment with SF-268, > 100 µM (inactive); in the experiment on SR, > 100 µM (inactive); in the experiment on RXF 393 it was > 100 µM (inactive); with HCT-15, > 100 µM; in the experiment on HCT-116, > 100 µM (inactive). The GI50 with RPMI-8226, with OVCAR-5, in the experiment on UO-31, in the experiment on UACC-257, in the experiment with MDA-MB-231 and with U-251 was > 100 µM (inactive) in each case. Also, the GI50 in the experiment on CAKI-1, with Hs-578T, in the experiment on CCRF-CEM, in the experiment with TK-10, in the experiment with DU-145 and with BT-549 was > 100 µM (inactive) each time.
Consider `CCN1CCN(c2nc3ccc([N+](=O)[O-])cc3nc2C(=O)c2ccccc2)CC1`, for which the GI50 is 16.8 µM (inactive) in the experiment with KM12; 19.1 µM (inactive) in the experiment on SF-268; 2.47 µM (inactive) in the experiment with SR; 16.7 µM (inactive) in the experiment with RXF 393; 12 µM in the experiment on HCT-15; 17.1 µM (inactive) in the experiment on HCT-116. Also, the GI50 was 12.8 µM (inactive) with RPMI-8226; 20.1 µM (inactive) in the experiment with OVCAR-5; 12.6 µM (inactive) with UO-31; 20.1 µM (inactive) in the experiment with UACC-257; 14.6 µM (inactive) in the experiment on MDA-MB-231; 17.3 µM (inactive) with U-251. Besides, the GI50 in the experiment on CAKI-1 is 16.7 µM (inactive); with CCRF-CEM, 2.12 µM (inactive); in the experiment with SK-OV-3 it was 14.8 µM (inactive); with TK-10, 19.9 µM (inactive); with DU-145, 18.8 µM (inactive); with T47D it was 26.7 µM (inactive). Also, in the experiment on BT-549, the GI50 was 5.64 µM (inactive).
As to `O=c1c2c3c(sc2nc2n1sc1nc4sc5c(c4c(=O)n12)CCCC5)CCCC3`, the GI50 with KM12 was > 89.7 µM (inactive); in the experiment on SF-268, 42 µM (inactive); in the experiment on SR it was 25.8 µM (inactive); with RXF 393, 21 µM (inactive); with HCT-15, 62.8 µM; in the experiment on HCT-116 it was 35.7 µM (inactive). The GI50 was 22.2 µM (inactive) in the experiment on RPMI-8226; > 100 µM (inactive) in the experiment with OVCAR-5; 18.5 µM (inactive) in the experiment on UO-31; > 96.8 µM (inactive) in the experiment with UACC-257; 25.9 µM (inactive) in the experiment with MDA-MB-231; > 83 µM (inactive) with U-251. Moreover, the GI50 in the experiment on CAKI-1 is 19.5 µM (inactive); in the experiment on Hs-578T, 39.6 µM (inactive); in the experiment on CCRF-CEM, 24.4 µM (inactive); in the experiment with SK-OV-3, 99.1 µM (inactive); with TK-10, 89.1 µM (inactive); in the experiment on DU-145, > 44.8 µM (inactive). Moreover, in the experiment on BT-549, the GI50 is 21.9 µM (inactive).
